Results reported in article PMC2362691, “A phase I study of the lipophilic thymidylate synthase inhibitor Thymitaq™ (nolatrexed dihydrochloride) given by 10-day oral administration” (British Journal of Cancer, 1999).
Values joined by “and” are separate entries in the source; they are usually repeats but may differ in a detail not shown here. Equal values may be shown once. Read-outs that look alike come from different tables or passages of the source.

Experiments:
[1] = set-up: method as in earlier work; settings: clinical trial, ref Calvert et al, 1986, 1987, Bassendine et al, Cantwell et al, 1988; cited from earlier work
[2] = set-up: method as in Rafi et al, 1996; settings: patients, 5-day oral administration; ref Rafi et al, 1996; cited from earlier work
[3] = cited from earlier work
[4] = no reference given, cited from earlier work; for bioavailability of proposed clinical formulation: capsules with microcrystalline cellulose and crospovidone, dosing preceded and followed by water gavage
[5] = cited from earlier work; remark: listed apart in the source
[6] = in vivo
[7] = set-up: method as in Rafi et al, 1995; settings: continuous 24-h infusion, ref Rafi et al, 1995, cited from earlier work
[8] = rats fasted before treatment, introduction, no reference given, cited from earlier work
[9] = Phase I study of 10-day oral nolatrexed (6 hourly, every 21 days): toxicity by CTC grade; settings: 6 hourly for 10 days, repeated at 3-weekly intervals (143 mg m-2 every 6 h)
thymidylate synthase = test: Plasma deoxyuridine (dUrd) concentrations, pretreatment vs day 10; format: in vivo, cancer patients
[10] = set-up: method as in Jodrell et al, 1991; settings: ref Jodrell et al, 1991; cited from earlier work
[11] = 10-day intravenous infusion, 716 mg m-2 day-1, ref Creaven et al (1998)
[12] = 5-day intravenous infusion, ref Rafi et al, 1998

SMILES: C#CCN(Cc1ccc2nc(N)[nH]c(=O)c2c1)c1ccc(C(=O)N[C@@H](CCC(=O)O)C(=O)O)cc1 [CB 3717, N10-propargyl-5,8-dideazafolic acid]
- toxicity that led to abandoned development [1]: sporadic and unpredictable nephrotoxicity and myelotoxicity

SMILES: Cc1ccc2nc(N)[nH]c(=O)c2c1Sc1ccncc1.Cl.Cl [nolatrexed, 2-Amino-3,4-dihydro-6-methyl-4-oxo-5-(4-pyridylthio)-quinazoline dihydrochloride]
- oral bioavailability [2]: 70–100%
- patients who completed the dose level [3, 11]: zero out of three
- patients with grade 4 myelosuppression [3, 11]: two out of three
- patients with dose-limiting myelosupression ([3]; in vivo, iv): one out of four
- patients who achieved disease stabilization (human, in vivo): three
- patients with progressive disease on treatment (ten out of 23 patients had evaluable disease): seven
- bioavailability of proposed clinical formulation ([4]; one dog): 70% and 107%
- bioavailability of proposed clinical formulation ([4]; second dog): 87%
- bioavailability ([4]; dogs fasted overnight, in 5% dextrose by gavage, introduction): > 90%
- duration of partial response ([5]; 5-day intravenous infusion, one patient with metastatic colorectal cancer, ref Rafi et al, 1998): 3 months
- dose-limiting toxicity [5, 12]: neutropenia
- maximum tolerated dose [5, 12]: 904 mg m-2 day-1
- recommended phase II dose [5, 12]: 800 mg m-2 day-1
- clearance ([5]; supported by median trough values of this study, ref Rafi et al (1998)): dose dependent
- dose level that could be considered for phase II testing ([6]; human, 10 days): 429 mg m-2 day-1
- doses at which thrombocytopenia (grade 1 or 2) occurred ([6]; human, po, 10 days): ≥ 318 mg m^−2day^−1
- additional patients with increased sensitivity to sunlight, no apparent rash [6]: five
- patients with elevation of serum bilirubin [6]: nine
- patients with skin rash [6]: eight
- systemic toxicity ([7]; maximum dose administered 1073 mg m-2): no systemic toxicity
- local toxicity (phlebitis), CTC grade [7]: 2 CTC grade
- oral bioavailability ([8]; 20 mg kg-1 (120 mg m-2)): 53%
- oral bioavailability ([8]; 40 mg kg-1 (240 mg m-2)): 50%
- oral bioavailability ([8]; 80 mg kg-1 (480 mg m-2)): 30%
- maximum tolerated dose [9]: 572 mg m-2 day-1
- elevation in plasma dUrd compared with baseline (thymidylate synthase; 429 mg m-2 day-1, in three out of four patients with data): > 75%
- rise of plasma dUrd concentration, median (thymidylate synthase; day 10 vs pretreatment, 12 out of 23 patients, all dose levels): 90 % of baseline

SMILES: Cc1nc2ccc(CN(C)c3ccc(C(=O)N[C@@H](CCC(=O)O)C(=O)O)s3)cc2c(=O)[nH]1 [raltitrexed]
- nephrotoxicity [10]: non-nephrotoxic
